The values below come from ChEMBL document CHEMBL1149764, “Synthesis, structure and biological activity of pseudopeptidic macrolides based on an amino alcohol” (Eur J Med Chem, 2008).

One series deals with Candida albicans. Put plainly: Antifungal activity against Candida albicans ATCC 10231 after 48 hrs standard broth microdilution method. In kind it is functional. The following applies: ATCC 10231, 48 h. Background: Broth dilution looks for growth in wells or tubes with falling amounts of substance.
The nature of series [1]: Antifungal activity against […] glutinis SYM 2209 after 48 hrs standard broth microdilution method. In kind it is functional.
A further series relates to Saccharomyces cerevisiae. Put plainly: Antifungal activity against Saccharomyces cerevisiae SYM 3513 after 48 hrs standard broth microdilution method. The series is classed as functional.
Another series relates to Aspergillus niger. Put plainly: Antifungal activity against Aspergillus niger ATCC 16404 after 48 hrs standard broth microdilution method. As to conditions: ATCC 16404, 48 h. In kind it is functional.
A further series relates to Aspergillus flavus. Put plainly: Antifungal activity against Aspergillus flavus SYM 223 after 48 hrs standard broth microdilution method. In kind it is functional.
Another series has as its system Staphylococcus aureus. Put plainly: Antibacterial activity against Staphylococcus aureus ATCC 25923 after 24 hrs by twofold dilution method. The following applies: ATCC 25923, 24 h. In kind it is functional.
In another series the test system is Bacillus subtilis. Put plainly: Antibacterial activity against Bacillus subtilis ATCC 6633 after 24 hrs by twofold dilution method. The following applies: ATCC 6633, 24 h. In kind it is functional.
The test system of another series is Escherichia coli. The series is described as follows: Antibacterial activity against Escherichia coli ATCC 25922 after 24 hrs by twofold dilution method. The following applies: ATCC 25922, 24 h. The series is classed as functional.
For another series, the system named is Pseudomonas aeruginosa. The series is described as follows: Antibacterial activity against Pseudomonas aeruginosa ATCC 27853 after 24 hrs by twofold dilution method. In kind it is functional. As to conditions: ATCC 27853, 24 h.
The test system of the next series is Cryptococcus neoformans. The series is described as follows: Antifungal activity against Cryptococcus neoformans SYM 523 after 48 hrs standard broth microdilution method. In kind it is functional.
Series [2] is described as follows: Antifungal activity against […] nigricans SYM 2417 after 48 hrs standard broth microdilution method. The series is classed as functional.
Series [3] is described as follows: Toxicity against human erythrocytes assessed as hemolytic activity at 4000 ug/ml. In kind it is cell-based, Erythrocyte. As to conditions: read-out: Activity.
Series [4] can be described thus: Toxicity against human erythrocytes assessed as hemolytic activity at 2000 ug/ml. In kind it is cell-based, Erythrocyte. As to conditions: read-out: Activity.
Series [5] is described as follows: Toxicity against human erythrocytes assessed as hemolytic activity at 1000 ug/ml. The series is classed as cell-based, Erythrocyte. As to conditions: read-out: Activity.
Series [6] in a line: Toxicity against human erythrocytes assessed as hemolytic activity at 500 ug/ml. The series is classed as cell-based, Erythrocyte. The following applies: read-out: Activity.
Series [7] can be described thus: Toxicity against human erythrocytes assessed as hemolytic activity at 250 ug/ml. In kind it is cell-based, Erythrocyte. The following applies: read-out: Activity.

In brackets after ≈: the same amount, converted by molar mass.

For orientation: MIC means the lowest concentration that inhibits growth of the organism. Higher therefore signals weaker potency. Turning to `C[C@@H]1[C@H](O)[C@@H](C)/C=C/C=C/C=C/C=C/C=C/C=C/C=C/[C@H](O[C@@H]2O[C@H](C)[C@@H](O)[C@H](N)[C@@H]2O)C[C@@H]2O[C@](O)(C[C@@H](O)C[C@@H](O)[C@H](O)CC[C@@H](O)C[C@@H](O)CC(=O)O[C@H]1C)C[C@H](O)[C@H]2C(=O)O` [AMPHOTERICIN B], the MIC in the series on Candida albicans is 1 µg/mL (≈ 1.08 µM); in series [1], 2 µg/mL (≈ 2.16 µM); against Saccharomyces cerevisiae, 0.5 µg/mL (≈ 0.541 µM); in the series with Aspergillus niger, 1 µg/mL (≈ 1.08 µM); against Aspergillus flavus, 0.5 µg/mL (≈ 0.541 µM).
Turning to `O=C(N[C@H](CO)[C@H](O)c1ccc([N+](=O)[O-])cc1)C(Cl)Cl` [CHLORAMPHENICOL], the MIC against Staphylococcus aureus was 4 µg/mL (≈ 12.4 µM); with Bacillus subtilis it was 8 µg/mL (≈ 24.8 µM); against Escherichia coli it was 8 µg/mL (≈ 24.8 µM); against Pseudomonas aeruginosa it was 32 µg/mL (≈ 99 µM).
As for `O=C1N[C@@H]2c3ccccc3C[C@@H]2OC(=O)c2cccc(n2)C(=O)O[C@H]2Cc3ccccc3[C@H]2NC(=O)c2cccc1c2`, the MIC is 16 µg/mL (≈ 28.6 µM) against Staphylococcus aureus; over 64 µg/mL against Bacillus subtilis; 32 µg/mL (≈ 57.2 µM) in the series on Escherichia coli; over 64 µg/mL in the series with Pseudomonas aeruginosa; 4 µg/mL (≈ 7.15 µM) against Candida albicans; 16 µg/mL (≈ 28.6 µM) with Cryptococcus neoformans. The MIC in series [1] is 8 µg/mL (≈ 14.3 µM); with Saccharomyces cerevisiae, 32 µg/mL (≈ 57.2 µM); in the series with Aspergillus niger it was 8 µg/mL (≈ 14.3 µM); with Aspergillus flavus, 2 µg/mL (≈ 3.57 µM); in series [2], 4 µg/mL (≈ 7.15 µM). In addition, the hemolysis at 4000 ug/ml in series [3] was 7%. Also, in series [4], the hemolysis at 2000 ug/ml was 4%. Besides, the hemolysis at 1000 ug/ml in series [5] turned out to be 2%. Moreover, the hemolysis at 500 ug/ml in series [6] was 0%. In addition, in series [7], the hemolysis at 250 ug/ml was found to be 0%.
On to `O=C1N[C@@H]2c3ccccc3C[C@@H]2OC(=O)c2cccc(n2)C(=O)O[C@H]2Cc3ccccc3[C@H]2NC(=O)c2cccc1n2`, for which the MIC was 4 µg/mL (≈ 7.14 µM) with Staphylococcus aureus; 8 µg/mL (≈ 14.3 µM) against Bacillus subtilis; 32 µg/mL (≈ 57.1 µM) in the series with Escherichia coli; over 64 µg/mL with Pseudomonas aeruginosa; 1 µg/mL (≈ 1.78 µM) in the series with Candida albicans; 16 µg/mL (≈ 28.5 µM) against Cryptococcus neoformans. The MIC was 16 µg/mL (≈ 28.5 µM) in series [1]; 64 µg/mL (≈ 114 µM) with Saccharomyces cerevisiae; 4 µg/mL (≈ 7.14 µM) with Aspergillus niger; over 64 µg/mL in the series with Aspergillus flavus; 8 µg/mL (≈ 14.3 µM) in series [2]. The hemolysis at 4000 ug/ml in series [3] stood at 2%. In addition, the hemolysis at 2000 ug/ml in series [4] amounted to 1%. The hemolysis at 1000 ug/ml in series [5] was found to be 0%. The hemolysis at 500 ug/ml in [6] amounted to 0%. In [7], the hemolysis at 250 ug/ml amounted to 0%.
Consider `O=C1O[C@H]2Cc3ccccc3[C@H]2NC(=O)c2cccc(n2)C(=O)N[C@@H]2c3ccccc3C[C@@H]2OC(=O)C2=CC=C1S2`, for which the MIC is 8 µg/mL (≈ 14.1 µM) against Staphylococcus aureus; over 64 µg/mL in the series on Bacillus subtilis; over 64 µg/mL in the series with Escherichia coli; over 64 µg/mL against Pseudomonas aeruginosa; 1 µg/mL (≈ 1.77 µM) against Candida albicans; 4 µg/mL (≈ 7.07 µM) against Cryptococcus neoformans. The minimum inhibitory concentration (MIC) in [1] amounted to 4 µg/mL (≈ 7.07 µM); against Saccharomyces cerevisiae, 8 µg/mL (≈ 14.1 µM); in the series on Aspergillus niger, 4 µg/mL (≈ 7.07 µM); with Aspergillus flavus it was 1 µg/mL (≈ 1.77 µM); in [2], 1 µg/mL (≈ 1.77 µM). Also, the hemolysis at 4000 ug/ml in [3] amounted to 14%. In series [4], the hemolysis at 2000 ug/ml worked out at 6%. The hemolysis at 1000 ug/ml in series [5] came to 4%. Besides, the hemolysis at 500 ug/ml in [6] was found to be 1%. The hemolysis at 250 ug/ml in series [7] was determined as 0.5%.
For `O=C1O[C@H]2Cc3ccccc3[C@H]2NC(=O)c2cccc(n2)C(=O)N[C@@H]2c3ccccc3C[C@@H]2OC(=O)c2cccc1c2`, the MIC against Staphylococcus aureus was 32 µg/mL (≈ 57.2 µM); against Bacillus subtilis, 4 µg/mL (≈ 7.15 µM); in the series on Escherichia coli, over 64 µg/mL; against Pseudomonas aeruginosa, 32 µg/mL (≈ 57.2 µM); against Candida albicans, 4 µg/mL (≈ 7.15 µM); in the series with Cryptococcus neoformans, 8 µg/mL (≈ 14.3 µM). Besides, the MIC in [1] is 8 µg/mL (≈ 14.3 µM); against Saccharomyces cerevisiae, 16 µg/mL (≈ 28.6 µM); against Aspergillus niger, 4 µg/mL (≈ 7.15 µM); in the series on Aspergillus flavus, 8 µg/mL (≈ 14.3 µM); in series [2] it was 4 µg/mL (≈ 7.15 µM). Further, the hemolysis at 4000 ug/ml in series [3] was found to be 9%. The hemolysis at 2000 ug/ml in series [4] was 6%. Besides, in series [5], the hemolysis at 1000 ug/ml stood at 3%. Moreover, in [6], the hemolysis at 500 ug/ml turned out to be 0%. Further, in series [7], the hemolysis at 250 ug/ml is 0%.
Regarding `O=C1O[C@H]2Cc3ccccc3[C@H]2NC(=O)c2cccc(c2)C(=O)N[C@@H]2c3ccccc3C[C@@H]2OC(=O)C2=CC=C1S2`, the MIC is 16 µg/mL (≈ 28.3 µM) against Staphylococcus aureus; over 64 µg/mL in the series on Bacillus subtilis; 16 µg/mL (≈ 28.3 µM) against Escherichia coli; over 64 µg/mL in the series on Pseudomonas aeruginosa; 1 µg/mL (≈ 1.77 µM) against Candida albicans; 4 µg/mL (≈ 7.08 µM) in the series with Cryptococcus neoformans. Also, the MIC in series [1] is 4 µg/mL (≈ 7.08 µM); in the series with Saccharomyces cerevisiae, 16 µg/mL (≈ 28.3 µM); in the series with Aspergillus niger, 32 µg/mL (≈ 56.7 µM); against Aspergillus flavus it was 8 µg/mL (≈ 14.2 µM); in series [2], 1 µg/mL (≈ 1.77 µM). In addition, the hemolysis at 4000 ug/ml in series [3] was found to be 9%. The hemolysis at 2000 ug/ml in [4] is 4%. Moreover, the hemolysis at 1000 ug/ml in series [5] was determined as 1%. The hemolysis at 500 ug/ml in series [6] worked out at 0%. Moreover, the hemolysis at 250 ug/ml in [7] amounted to 0%.
Turning to `OC(Cn1cncn1)(Cn1cncn1)c1ccc(F)cc1F` [FLUCONAZOLE], the MIC is 16 µg/mL (≈ 52.2 µM) against Candida albicans; 32 µg/mL (≈ 104 µM) against Cryptococcus neoformans; over 64 µg/mL in series [1]; 32 µg/mL (≈ 104 µM) in the series with Saccharomyces cerevisiae; 64 µg/mL (≈ 209 µM) with Aspergillus niger; 64 µg/mL (≈ 209 µM) in the series on Aspergillus flavus.
For the compound `O=C1N[C@@H]2c3ccccc3C[C@@H]2OC(=O)c2cccc(c2)C(=O)O[C@H]2Cc3ccccc3[C@H]2NC(=O)c2cccc1c2`, the MIC with Staphylococcus aureus is 4 µg/mL (≈ 7.16 µM); against Bacillus subtilis, 8 µg/mL (≈ 14.3 µM); in the series on Escherichia coli, 16 µg/mL (≈ 28.6 µM); against Pseudomonas aeruginosa, over 64 µg/mL; against Candida albicans it was 1 µg/mL (≈ 1.79 µM); in the series on Cryptococcus neoformans, 4 µg/mL (≈ 7.16 µM). Moreover, the minimum inhibitory concentration (MIC) in series [1] came to 4 µg/mL (≈ 7.16 µM); in the series on Saccharomyces cerevisiae, 32 µg/mL (≈ 57.3 µM); in the series on Aspergillus niger, 8 µg/mL (≈ 14.3 µM); against Aspergillus flavus, 2 µg/mL (≈ 3.58 µM); in series [2] it was 1 µg/mL (≈ 1.79 µM). Further, in series [3], the hemolysis at 4000 ug/ml came out at 2%. For the same compound, in [4], the hemolysis at 2000 ug/ml is 0.5%. Also, the hemolysis at 1000 ug/ml in series [5] is 0%. Also, the hemolysis at 500 ug/ml in series [6] amounted to 0%. In addition, in series [7], the hemolysis at 250 ug/ml was 0%.
